From paper PMC9917213, “New Insights into Bitopic Orthosteric/Allosteric Ligands of Cannabinoid Receptor Type 2” (International Journal of Molecular Sciences, 2023)
Read-outs that look alike come from different tables or passages of the source.

Tests used:
hCB2R [1] = molecular target: T1, hCB2R (Homo sapiens, UniProt P34972); assay: HitHunter cAMP assay: inhibition of forskolin-stimulated cAMP; format: cell-based; settings: for Emax: read-out: Emax ± SEM
T1 construct: host or cells: CHO-K1 (HitHunter cAMP cell line)
T1 sequence (P34972 whole entry): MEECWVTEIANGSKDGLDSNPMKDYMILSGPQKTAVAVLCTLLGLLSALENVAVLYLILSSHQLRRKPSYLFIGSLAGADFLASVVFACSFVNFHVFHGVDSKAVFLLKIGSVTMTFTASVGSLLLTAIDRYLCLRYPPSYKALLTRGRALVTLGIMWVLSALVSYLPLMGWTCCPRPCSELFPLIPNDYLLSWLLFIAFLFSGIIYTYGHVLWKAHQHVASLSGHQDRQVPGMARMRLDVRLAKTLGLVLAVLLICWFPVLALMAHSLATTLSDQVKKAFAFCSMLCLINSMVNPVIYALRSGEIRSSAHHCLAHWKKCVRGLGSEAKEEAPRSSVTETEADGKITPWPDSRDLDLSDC
Procedure: Chinese hamster ovary (CHO)-K1 cells untransfected or stably-expressing human cannabinoid CB2R (hCB2R) were used as previously reported. Cells were maintained at 37 °C, 5% CO2 in F-12/DMEM containing 1 mM L-glutamine, 10% fetal bovine serum (FBS), and 1% Pen/Strep and hygromycin B (300 μg/mL) and G418 (400 μg/mL). HitHunter® (cAMP) CHO-K1 cells stably expressing hCB2R from DiscoveRx (Eurofins, Fremont, CA, USA) were maintained at 37 °C, 5% CO2 in F-12 DMEM containing 10% FBS and 1% Pen/Strep with 800 μg/mL geneticin.
This method was conducted as described previously. The quantification of FSK-stimulated cAMP accumulation was performed using the DiscoveRx HitHunter assay. Twenty thousand cells/well were plated in low-volume 96-well plates and incubated overnight in Opti-MEM containing 1% FBS at 37 °C and 5% CO2. Opti-MEM media was then removed and replaced with cell assay buffer (DiscoveRx), and cells were co-treated at 37 °C with 10 μM FSK and ligands for 90 min. The cAMP antibody solution and cAMP working detection solutions were added to cells (DiscoveRx), and cells were incubated for 60 min at room temperature. cAMP solution A (DiscoveRx) was added, and cells were incubated for an additional 180 min at room temperature before chemiluminescence was measured on a Cytation5 plate reader (top read, gain 200, integration time 10,000 ms).
Post-hoc analyses were performed using Tukey’s (one-way ANOVA) test.

HMC3 cells [2] = assay: IL-6 release (ELISA) in LPS/TNFα stimulated HMC3 cells; format: cell-based, human
Procedure: The human microglial clone 3 cell line (HMC3) (ATCC® CRL-3304™) was cultured in high glucose DMEM supplemented with 10% FBS, streptomycin ([…]) and penicillin (100 U/mL) (Sigma-Aldrich, Milan, Italy). LPS (Cat. number L4391) and TNFα (Cat. number H8916) were purchased from Sigma-Aldrich (Milan, Italy).
The pro-inflammatory IL-6 levels were evaluated by a specific ELISA assay (RAB0306, Sigma-Aldrich, Milan, Italy) on collected culture media. Briefly, HMC3 cells were exposed to pretreatment with a test compound for 30 min followed by LPS (10 μg/mL)/TNFα (50 ng/mL) for 24 h, used as pro-inflammatory stimuli. Vehicle-treated cells were used as control. In competition experiments, the CB2R antagonist (SR144528, 1 μM; Cayman Chemical Company, Ann Arbor, MA, USA) or the CB2R positive allosteric modulator (EC21a, 10 μM) was administered 15 min before agonist administration.

[3] = Plasma stability (LC-HRMS), rat plasma; format: in vitro ADME; settings: 20 µM, 37 °C, up to 360 min
Procedure: (§1) Plasma stability was evaluated at the time points 0, 10, 30, 60, 120, 240, and 360 min over two species, rodent (rat) and human, and assessed by LC-HRMS. Results are expressed as a relative percentage (mean ± SD) with respect to the amount at t = 0 min. JR22a is stable both in rat and human plasma up to the last time point tested (360 min), as can be observed in Figure 6.
(§2) Stock solutions of 1 mg/mL JR22a and procainamide (used as internal standard, IS) were prepared in CH3OH and kept in ice during sample preparation and stored at −20 °C if not in use. The stability was tested in rat and human plasma obtained from Sigma-Aldrich (Milan, Italy).
(§3) JR22a (20 µM) was incubated with plasma at 37 °C under gentle shaking up to […] in triplicates. An aliquot of 20 µL was withdrawn from the mixture and diluted to a final volume of 200 µL of a 2 % TCA solution containing procainamide 1 µM at each time point: 10, 30, 60, 120, 240, and 360 min. Samples were kept in ice for 20 min and then centrifugated at 14,000 rpm for 10 min at 4 °C. The supernatant was diluted 1:1 with water and transferred in vials for the analysis. […]

[4] = Plasma stability (LC-HRMS), human plasma; format: in vitro ADME; settings: 20 µM, 37 °C, up to 360 min
Procedure: as §1, §2, §3

hCB1R = molecular target: T2, hCB1R (Homo sapiens, UniProt P21554); assay: [3H]CP55,940 radioligand displacement assay, hCB1R; format: binding; settings: CHO hCB1R membranes, 1 nM [3H]CP55,940, 0.10 nM-10 μM compound, 2 h
T2 construct: expressed in transfected cells; host or cells: CHO-K1 cell membranes
T2 sequence (P21554 whole entry): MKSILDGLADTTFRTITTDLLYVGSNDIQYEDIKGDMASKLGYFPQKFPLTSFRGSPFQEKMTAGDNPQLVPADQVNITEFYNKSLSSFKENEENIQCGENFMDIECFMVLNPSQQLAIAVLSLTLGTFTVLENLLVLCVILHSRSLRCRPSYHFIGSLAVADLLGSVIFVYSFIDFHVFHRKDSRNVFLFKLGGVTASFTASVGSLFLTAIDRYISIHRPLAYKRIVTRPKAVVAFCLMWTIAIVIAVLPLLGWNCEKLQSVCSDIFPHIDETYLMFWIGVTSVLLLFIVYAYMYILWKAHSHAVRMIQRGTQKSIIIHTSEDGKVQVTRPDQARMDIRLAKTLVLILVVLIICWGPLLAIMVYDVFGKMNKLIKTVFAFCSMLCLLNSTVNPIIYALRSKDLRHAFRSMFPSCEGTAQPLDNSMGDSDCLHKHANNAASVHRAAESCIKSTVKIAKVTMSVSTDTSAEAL
Procedure: (§4) We assessed ligand affinity for JR-22a at hCB1R and hCB2R using a […]
(§5) either receptor. […] At hCB2R, JR-22a
(§6) Figure S1. […] Membranes from CHO-K1 cells stably-expressing hCB1R (a) or […]
(§7) Data were fitted to a non-linear regression (three-parameter model, GraphPad v. 9.0). Data are mean ± S.E.M. of 3 independent experiments performed in triplicate.
(§8) Radioligand Displacement Assay.
(§9) Cells were scraped from flasks, centrifuged, and frozen at −80 °C until required.
(§10) This method was conducted as described previously. Cells were thawed, diluted in Tris buffer (50 mM Tris−HCl and 50 mM Tris−base), and homogenized in a 1 mL handheld homogenizer. hCB1R and hCB2R CHO−K1 cell membranes were collected by cavitation in a pressure cell and sedimented by ultracentrifugation. Pellets were resuspended in TME buffer (50 mM Tris−HCl, 5 mM MgCl2, 1 mM EDTA, pH 7.4), and protein concentration was measured via the Bradford method (Bio-Rad Laboratories, Mississauga, ON). Competition binding experiments were conducted with 1 nM [3H]CP55, 940 and Tris binding buffer (50 mM Tris−HCl, 50 mM Tris−base, 0.1% BSA, pH 7.4, 2 mL). Radioligand binding began with the addition of CHO−K1 cell membranes (50 μg protein per sample). […] Liquid scintillation spectrometry was used to quantify radioactivity. For competition binding experiments, specific binding was equal to the difference in radioactivity with or without 1 μM […]

HMC3 cells [5] = assay: MTT cell viability assay; format: cell-based, human; settings: 24 h
Procedure: Cell viability was evaluated by 3-(4,5-dimethylthiazol-2-yl)-2,5-diphenyltetrazolium bromide (MTT) reagent. Briefly, HMC3 cells were exposed to increasing concentrations of the compound, ranging from 0.1 to 25 µM. After 24 h, 0.5 mg/mL MTT reagent was added to each well, and the cells were incubated for 3 h at 37 °C. Then, 25 µL of the medium was removed from the wells, and 50 µL of DMSO was added. After 10 min incubation at 37 °C, absorbance at OD540 nm was determined with an automated microplate reader (BIO-TEK, Winooski, VT, USA). The percentage of cell viability was calculated as a percentage of vehicle-treated cells used as control.

hCB2R [6] = molecular target: T1, hCB2R; assay: [3H]CP55,940 radioligand displacement assay, hCB2R; format: binding
Procedure: as §4, §5, §6, §7, §8, §9, §10

[7] = pEC50 ± SEM, compound alone, CHO hCB2R, 10 μM FSK, 90 min

Cc1c(Br)cn(CCCCCCCn2c(=O)c(C(=O)NC3CCC(C)CC3)cc3cccnc32)c(=O)c1NC(=O)C1CCCCCC1 (stereo not drawn) [JR64a]
EC50 (hCB2R [1]; [7]): 2.51 nM
Emax (hCB2R [1]): 19 ± 6%

Cc1c(Br)cn(CCCc2cn(CCCCCn3c(=O)c(C(=O)NC4CCC(C)CC4)cc4cccnc43)nn2)c(=O)c1NC(=O)C1CCCCCC1 (stereo not drawn) [JR22a]
IL-6 levels in the cultured medium (HMC3 cells [2]; 1 and 10 μM, 30 min pre-treatment, then LPS (10 μg/mL)/TNFα (50 ng/mL) 24 h): significant dose-dependent decrease
Effect of EC21a co-treatment on ability of JR22a to prevent IL-6 release (HMC3 cells [2]; EC21a 10 μM, equimolar with JR22a, LPS/TNFα 24 h): did not interfere
Effect of SR144528 pre-administration on the JR22a effect on IL-6 release (HMC3 cells [2]; SR144528 1 μM, 15 min before JR22a, LPS/TNFα 24 h): almost completely abolished
Plasma stability [3]: stable
Plasma stability [4]: stable
Displacement of [3H]CP55,940 (hCB1R): not able to displace
Cell viability (MTT) (HMC3 cells [5]; 25 μM): significant inhibition of cell viability
Cytotoxic effect (cell viability, MTT) (HMC3 cells [5]; 1 and 10 μM): no cytotoxic effect
IC50 (hCB2R [6]): 95 nM
Ki (hCB2R [6]): 95 nM
EC50 (hCB2R [1]; EC50 (in brackets after pEC50), compound alone, CHO hCB2R, 10 μM FSK, 90 min): 698 nM
EC50 (hCB2R [1]; [7]): 794 nM
Emax (hCB2R [1]): 53 ± 6%

Cc1c(Br)cn(CCCc2cn(CCCCC(=O)NC3CCC(NC(=O)c4cc5cccnc5n(Cc5ccc(F)cc5)c4=O)CC3)nn2)c(=O)c1NC(=O)C1CCCCCC1 (stereo not drawn) [JR14a]
pEC50 ± SEM (hCB2R [1]; compound alone, CHO hCB2R, 10 μM FSK, 90 min): 7.6 ± 0.9
EC50 (hCB2R [1]; compound alone, CHO hCB2R, 10 μM FSK, 90 min, read-out: EC50 (in brackets after pEC50) (converted)): 24 nM
Emax (hCB2R [1]): 29 ± 5%

Cc1c(Br)cn(Cc2ccc(F)cc2)c(=O)c1NC(=O)C1CCCCCC1 [EC21a, reference compound]
EC50 (hCB2R [1]): 30 nM
Activity alone in cAMP inhibition (hCB2R [1]; EC21a alone, Emax not different from 0): inactive
Emax (hCB2R [1]): -14 ± 7%
